Measured values published in patent US20250213550A1, “COMPOUNDS AND METHODS FOR TREATING INFLAMMATORY BOWEL DISEASE” (Gilead Sciences, Inc., priority 2023, published 2025).
Where two headings read alike, the source gives them in different places.

Legend:
OATP/P-gp = experiment: Drug-drug interaction: mixed OATP/P-gp inhibitor CsA on PK of Compound A; type: in vivo, human; conditions: co-administration of Compound 1 600 mg with CsA 600 mg, fasted
Method: A Phase 1, open-label, single-center, multiple-cohort study was conducted to evaluate the effect of a mixed OATP/P-gp inhibitor (cyclosporine A; CsA) or food on the PK of Compound 1, the effect of Compound 1 on the PK of midazolam (MDZ), the effect of Compound 1 on the PK of OATP/CYP3A/BCRP substrates using atorvastatin (ATV), pravastatin (PRA), and rosuvastatin (ROS), and the effect of Compound 1 on the PK of a representative combined oral contraceptive (drospirenone/ethinyl estradiol; DRSP/EE), in healthy participants. 70 participants ages 18 to 55 years (inclusive) and having BMI of ≥18.0 kg/m^2 and ≤30.0 kg/m^2 were enrolled. For Cohorts 1-3, there were an approximately even distribution of healthy participants assigned male at birth and nonpregnant, nonlactating participants assigned female at birth. Cohort 4 included only healthy, nonpregnant, nonlactating participants assigned female at birth.
Treatment C: Single dose of Compound 1 600 mg, administered in the AM, under fasted conditions with a single dose of CsA 600 mg […]
Concentrations of Compound 1 and its active metabolites Compound A and Compound B, MDZ and its metabolite 1-OH-MDZ, ATV and its metabolite 2-OH-ATV, PRA, ROS, DRSP, and EE in plasma PK samples were determined by validated high performance liquid chromatography tandem mass spectrometry (LC-MS/MS) bioanalytical methods.

[1] = Phase 1 single- and multiple-ascending dose study: plasma PK of Compound A after oral Compound 1; type: in vivo, human; conditions: for Ctau / AUCtau/D / Cmax/D / AUC: Day 10, mean; for AUCtau/D / Cmax/D: dose-normalized; for half-life / AUC / Tmax: human, plasma
Method: A 2-part, single- and multiple-ascending dose sponsor-unblinded Phase 1 study was conducted for Cohorts 1-9 to evaluate the safety, tolerability, PK, and PD of Compound 1 in healthy participants. Up to 72 participants ages 18 to 55 years (inclusive) and having body mass index (BMI) of ≥19.0 and ≤30.0 kg/m^2 were enrolled. For Cohort 9, participants were homozygous for the UGT1A1*28 allele (UGT1A1 *28/*28: TA7/TA7).
Part A proceeded in 4 staggered, dose-escalation cohorts. Within each of Cohorts 1-4, 8 unique participants were randomized 3:1 to receive blinded Compound 1 (N=6) or placebo-to-match (PTM) (N=2). The dose of Compound 1 for all adaptive cohorts (Cohorts 2, 3, and 4) was determined based on cumulative safety and available PK data through a minimum of Day 3 from previous cohorts, not exceeding the specified upper dose limit (Table 2). Dosing in Part A was completed prior to proceeding with Part B.
Part B proceeded in up to 5 staggered, dose-escalation cohorts. Within each of Cohorts 5-9, 8 unique participants were randomized 3:1 to receive blinded Compound 1 (N=6) or PTM (N=2). Start of multiple dosing within Adaptive Cohort 5 was determined by review of the cumulative safety and PK data through at least Day 3 of the final cohort in Part A. Initiation of subsequent multiple-dose cohorts at a higher dose (Cohorts 6, 7, 8, and 9) was determined based on cumulative safety through at least Day 10 from all participants enrolled in the previous multiple-dose cohort (Table 3).
For Cohorts 1-4, plasma PK sampling occurred relative to the dose of Compound 1 at the following time points: • Day 1: 0 (pre-dose, ≤5 min prior to dosing), 0.25, 0.5, 1, 1.5, 2, 3, 4, 6, 8, 12, 18, 24, 36, 48, 72, 96, and 120 hours post-dose A single plasma PK sample was collected at early termination (ET), if applicable.
For Cohorts 5-9, plasma PK sampling occurred relative to the dose of Compound 1 at the following time points: • Day 1 (Cohorts 8 and 9): pre-dose (≤5 min before dose), 0.5, 1, 2, 3, 4, 6, 8, 12, 13, 14, 15, 16, 18, and 20 hours post-dose (relative to AM dose) • Day 10 (Cohorts 5-9): pre-dose (≤5 min before dose), 0.25, 0.5, 1, 1.5, 2, 3, 4, 6, 8, 12, 18, 24, 36, 48, 72, 96, and 120 hours post-dose • A pre-dose sample was collected on Days 2, 4, 7, and 8. A single plasma PK sample was collected at early termination (ET), if applicable.
Concentrations of Compound 1, and its respective metabolites Compound A and Compound B in plasma PK samples were determined by validated high-performance liquid chromatography-tandem mass spectrometry (LC-MS/MS) bioanalytical methods.
Pharmacokinetic parameters for Compound 1 and its metabolites were determined from the plasma concentration-time profiles for all evaluable participants.
Compound 1 was administered under fasting conditions following an overnight fast (no food or drinks except water) for at least 10 hours; food could be consumed 4 hours after administration of Compound 1.

[2] = Cohort 5, 75 mg Cpd 1 QD fasted
[3] = Cohort 6, 300 mg Cpd 1 QD fasted
[4] = Cohort 7, 900 mg Cpd 1 QD fasted

## Cn1ccc2c([C@H](Nc3cc(Cl)c4ncc(C#N)c(NCC(C)(C)C)c4c3)c3cn(C45CC(C4)C5)nn3)cccc2c1=O [Compound A]
OATP/P-gp
  increase of Compound A AUCinf: 122%
  increase of Compound A Cmax: 27%
[1]; [2]
  Ctau: 0.273 µg/mL
  AUCtau/D: 0.141 µg·h/mL
  Cmax/D: 13.1 ng/mL
[1]; [3]
  Ctau: 1.07 µg/mL
  AUCtau/D: 0.125 µg·h/mL
  Cmax/D: 10.6 ng/mL
[1]; [4]
  Ctau: 2.33 µg/mL
  AUCtau/D: 0.0691 µg·h/mL
  Cmax/D: 5.5 ng/mL
[1]; Compound 1 once-daily dosing
  time to steady-state exposures: ≤ 7 days
[1]; oral, 75 mg, Cohort 5, 75 mg Cpd 1 QD fasted, Day 10, median, read-out: t1/2 (converted)
  half-life: 21.8 h
[1]; oral, 300 mg, Cohort 6, 300 mg Cpd 1 QD fasted, Day 10, median, read-out: t1/2 (converted)
  half-life: 19 h
[1]; oral, 900 mg, Cohort 7, 900 mg Cpd 1 QD fasted, Day 10, median, read-out: t1/2 (converted)
  half-life: 28.5 h
[1]; oral, across Compound 1 dose levels, single or multiple doses, read-out: median t1/2
  half-life: 20 to 30 h
[1]; oral, Cohort 5, 75 mg Cpd 1 QD fasted
  AUC: 10500 ng·h/mL
[1]; oral, Cohort 5, 75 mg Cpd 1 QD fasted, Day 10, median, read-out: Tmax
  Tmax: 3 h
[1]; oral, Cohort 6, 300 mg Cpd 1 QD fasted
  AUC: 37400 ng·h/mL
[1]; oral, Cohort 6, 300 mg Cpd 1 QD fasted, Day 10, median, read-out: Tmax
  Tmax: 4 h
[1]; oral, Cohort 7, 900 mg Cpd 1 QD fasted
  AUC: 62200 ng·h/mL
[1]; oral, Cohort 7, 900 mg Cpd 1 QD fasted, Day 10, median, read-out: Tmax
  Tmax: 3.01 h
[1]; oral, multiple doses of Compound 1 (75 to 900 mg QD, 600 mg BID), fasted, range across cohorts, read-out: median Tmax
  Tmax: 2 to 4 h
[1]; oral, multiple doses of Compound 1 (75 to 900 mg QD, 600 mg BID), fasted, range across cohorts, read-out: median t1/2
  half-life: 19 to 28 h
[1]; po, single oral doses of Compound 1 (300 to 1500 mg), fasted, range across doses, read-out: median terminal elimination t1/2
  half-life: 22 to 29 h
[1]; single oral doses of Compound 1 (300 to 1500 mg), fasted, range across doses, read-out: median Tmax
  Tmax: 3 to 4 h
[1]; multiple dosing of 600 mg Compound 1 once daily
  exposure (AUC) accumulation: approximately 2 fold
[1]; multiple once-daily doses of Compound 1, 75 to 900 mg, fasted
  steady-state plasma exposure (Cmax and AUC): increased in a dose-dependent manner
[1]; single oral doses of Compound 1, 300 to 900 mg dose range, fasted
  plasma exposure (Cmax, AUCinf, and AUClast): increased in a dose-dependent manner
